Assay results reported in patent publication US12723063B2, “GIPR-agonist compounds” (Eli Lilly and Company, priority 2019, dated 2026).
*1 amine or outer side, *2 acyl side, *3 side chain or, on linkers, in order; H or OH if unused. Where a SMILES comes first, the peptide text is derived from it. Side-chain parts run from the residue outwards. [ ]: non-standard residue; d: D form. The star is where a group is joined. C20 diacid = O=C(O)CCCCCCCCCCCCCCCCCCC(=O)*; αMePhe(2-F) = C[C@](N)(Cc1ccccc1F)C(=O)O; γGlu = O=C(O)[C@H](CCC(=O)[*:2])N[*:1]; αMeF = C[C@](N)(Cc1ccccc1)C(=O)O; 4Pal = N[C@@H](Cc1ccncc1)C(=O)O; αMeL = CC(C)C[C@](C)(N)C(=O)O; AEEA = NCCOCCOCC(=O)O; Aib = CC(C)(N)C(=O)O

Tests used:
[1] = target: T1, human GLP-1R (Homo sapiens, UniProt P43220); experiment: [125I]-GLP-1 binding, SPA with WGA beads, 0.1% bacitracin; conditions: geometric mean, read-out: hGLP1R Ki
T1 construct: expressed in transfected cells; crude membranes
Procedure, shortened: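 Binding buffer was 25 mM HEPES pH 7.4 with 2.5 mM CaCl2, 1 mM MgCl2, 0.1% (w/v) bacitracin, 0.003% Tween-20 and EDTA-free protease inhibitors. Four-parameter regression gave IC50, converted to Ki (geometric mean, SEM, n independent days).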

[2] = target: T2, human GLP-1 receptor (GLP-1R) (Homo sapiens, UniProt P43220); experiment: cAMP functional assay (HTRF) in HEK293 cells in presence of 0.1% casein; type: cell-based; conditions: HEK293 cells expressing human GLP-1R, geometric mean, read-out: hGLP1R cAMP Rel EC50 nM (SEM, n)
T2 construct: expressed in transfected cells; host or cells: HEK293

[3] = target: T3, human glucagon receptor (GcgR) (Homo sapiens, UniProt P47871); experiment: as above; type: cell-based; conditions: HEK293 cells expressing human GcgR, geometric mean, read-out: hGcgR cAMP Rel EC50 nM (SEM, n)
T3 construct: expressed in transfected cells; host or cells: HEK293
T3 sequence (P47871 26-477): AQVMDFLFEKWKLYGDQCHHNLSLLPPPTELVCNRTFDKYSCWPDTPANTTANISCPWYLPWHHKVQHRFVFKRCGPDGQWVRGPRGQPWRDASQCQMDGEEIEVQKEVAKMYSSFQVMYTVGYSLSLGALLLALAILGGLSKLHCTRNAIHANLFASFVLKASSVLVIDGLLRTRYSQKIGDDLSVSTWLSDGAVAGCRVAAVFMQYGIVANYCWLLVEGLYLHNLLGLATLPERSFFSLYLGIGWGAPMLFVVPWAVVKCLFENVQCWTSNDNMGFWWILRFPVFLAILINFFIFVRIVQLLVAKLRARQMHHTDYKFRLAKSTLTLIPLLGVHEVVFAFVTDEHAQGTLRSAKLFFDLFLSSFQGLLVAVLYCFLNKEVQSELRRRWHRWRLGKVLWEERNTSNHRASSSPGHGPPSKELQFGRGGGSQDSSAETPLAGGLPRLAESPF

T2 sequence (P43220 24-463): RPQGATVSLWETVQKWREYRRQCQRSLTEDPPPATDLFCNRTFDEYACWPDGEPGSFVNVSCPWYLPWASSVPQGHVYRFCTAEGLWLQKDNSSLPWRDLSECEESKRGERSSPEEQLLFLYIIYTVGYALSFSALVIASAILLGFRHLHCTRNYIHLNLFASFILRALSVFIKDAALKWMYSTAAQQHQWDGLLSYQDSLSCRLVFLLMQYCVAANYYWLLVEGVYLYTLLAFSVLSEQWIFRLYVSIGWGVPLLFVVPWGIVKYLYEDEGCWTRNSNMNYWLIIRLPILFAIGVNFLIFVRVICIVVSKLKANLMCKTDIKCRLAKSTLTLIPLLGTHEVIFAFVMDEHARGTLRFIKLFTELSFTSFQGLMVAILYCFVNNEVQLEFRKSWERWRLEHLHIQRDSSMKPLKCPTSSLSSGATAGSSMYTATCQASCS
T1 sequence (P43220 24-463): as above

| Structure (SMILES) | Ki [1] [nM] | EC50 [2] [nM] | EC50 [3] [nM] |
| --- | --- | --- | --- |
| CC[C@H](C)[C@H](NC(=O)[C@H](CO)NC(=O)[C@H](Cc1ccc(O)cc1)NC(=O)[C@H](CC(=O)O)NC(=O)[C@H](CO)NC(=O)[C@@H](NC(=O)[C@](C)(Cc1ccccc1)NC(=O)[C@@H](NC(=O)CNC(=O)[C@H](CCC(=O)O)NC(=O)C(C)(C)NC(=O)[C@@H](N)Cc1ccc(O)cc1)[C@@H](C)O)[C@@H](C)CC)C(=O)N[C@@](C)(CC(C)C)C(=O)N[C@@H](CC(C)C)C(=O)N[C@@H](CC(=O)O)C(=O)N[C@@H](CCCCN)C(=O)N[C@@H](CCCCNC(=O)COCCOCCNC(=O)COCCOCCNC(=O)CC[C@H](NC(=O)CCCCCCCCCCCCCCCCCCC(=O)O)C(=O)O)C(=O)N[C@@H](Cc1c[nH]cn1)C(=O)N[C@@H](CCC(N)=O)C(=O)NC(C)(C)C(=O)N[C@@H](CC(=O)O)C(=O)N[C@@H](Cc1ccccc1)C(=O)N[C@H](C(=O)N[C@@H](CCC(=O)O)C(=O)N[C@@H](Cc1ccncc1)C(=O)N[C@@H](CC(C)C)C(=O)N[C@@H](CC(C)C)C(=O)N[C@@H](C)C(=O)NCC(=O)NCC(=O)N1CCC[C@H]1C(=O)N[C@@H](CO)C(=O)N[C@@H](CO)C(=O)NCC(=O)N[C@@H](C)C(=O)N1CCC[C@H]1C(=O)N1CCC[C@H]1C(=O)N1CCC[C@H]1C(=O)N[C@@H](CO)C(N)=O)C(C)C [Example 50] (H-Y[Aib]EGT[αMeF]ISDYSI[αMeL]LDKK([AEEA-AEEA-γGlu-C20 diacid])HQ[Aib]DFVE[4Pal]LLAGGPSSGAPPPS-NH2) | 34.9 | 41 | 371 |
| CC[C@H](C)[C@H](NC(=O)[C@H](CO)NC(=O)[C@H](Cc1ccc(O)cc1)NC(=O)[C@H](CC(=O)O)NC(=O)[C@H](CO)NC(=O)[C@@H](NC(=O)[C@](C)(Cc1ccccc1F)NC(=O)[C@@H](NC(=O)CNC(=O)[C@H](CCC(=O)O)NC(=O)C(C)(C)NC(=O)[C@@H](N)Cc1ccc(O)cc1)[C@@H](C)O)[C@@H](C)CC)C(=O)N[C@@](C)(CC(C)C)C(=O)N[C@@H](CC(C)C)C(=O)N[C@@H](CC(=O)O)C(=O)N[C@@H](CCCCN)C(=O)N[C@@H](CCCCNC(=O)COCCOCCNC(=O)COCCOCCNC(=O)CC[C@H](NC(=O)CCCCCCCCCCCCCCCCCCC(=O)O)C(=O)O)C(=O)N[C@@H](Cc1c[nH]cn1)C(=O)N[C@@H](CCC(N)=O)C(=O)NC(C)(C)C(=O)N[C@@H](CC(=O)O)C(=O)N[C@@H](Cc1ccccc1)C(=O)N[C@H](C(=O)N[C@@H](CCC(=O)O)C(=O)N[C@@H](Cc1ccncc1)C(=O)N[C@@H](CC(C)C)C(=O)N[C@@H](CC(C)C)C(=O)N[C@@H](C)C(=O)NCC(=O)NCC(=O)N1CCC[C@H]1C(=O)N[C@@H](CO)C(=O)N[C@@H](CO)C(=O)NCC(=O)N[C@@H](C)C(=O)N1CCC[C@H]1C(=O)N1CCC[C@H]1C(=O)N1CCC[C@H]1C(=O)N[C@@H](CO)C(N)=O)C(C)C [Example 51] (H-Y[Aib]EGT[αMePhe(2-F)]ISDYSI[αMeL]LDKK([AEEA-AEEA-γGlu-C20 diacid])HQ[Aib]DFVE[4Pal]LLAGGPSSGAPPPS-NH2) | 54.1 | 24.7 | 308 |
